According to the supplement of paper PMC10307832:

Tests used:
Test in all cases: relative viability (nuclei count vs DMSO), 5 days (fraction); higher = more cells survive
IPA-3 + Luminespib = compound: C1=CC=C2C(=C1)C=CC(=C2SSC3=C(C=CC4=CC=CC=C43)O)O [IPA-3] + CCNC(=O)c1noc(-c2cc(C(C)C)c(O)cc2O)c1-c1ccc(CN2CCOCC2)cc1 [Luminespib] (partner 0.01 µM)
Summary of the method: (§1)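 Five library-drug doses in √10 steps were combined with a fixed anchor-drug dose, or a single drug was given alone, by pin tool to lung cancer cell lines in 1536-well plates the day after seeding. Nuclei were stained and counted after 5 days. Relative viability is the nuclei count in treated wells over that in vehicle wells, taken as the median of duplicate plates.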

RAF265 + Vorinostat = compound: Cn1c(Nc2ccc(C(F)(F)F)cc2)nc2cc(Oc3ccnc(-c4ncc(C(F)(F)F)[nH]4)c3)ccc21 [RAF265] + O=C(CCCCCCC(=O)Nc1ccccc1)NO [Vorinostat] (partner 1 µM)
Summary of the method: as §1

Doramapimod + Vorinostat = compound: Cc1ccc(-n2nc(C(C)(C)C)cc2NC(=O)Nc2ccc(OCCN3CCOCC3)c3ccccc23)cc1 [Doramapimod] + O=C(CCCCCCC(=O)Nc1ccccc1)NO [Vorinostat] (partner 1 µM)
Summary of the method: as §1

RAF265 + Pictilisib = compound: Cn1c(Nc2ccc(C(F)(F)F)cc2)nc2cc(Oc3ccnc(-c4ncc(C(F)(F)F)[nH]4)c3)ccc21 [RAF265] + CS(=O)(=O)N1CCN(Cc2cc3nc(-c4cccc5[nH]ncc45)nc(N4CCOCC4)c3s2)CC1 [Pictilisib] (partner 1 µM)
Summary of the method: as §1

Cell Line	relative viability (IPA-3 + Luminespib; first compound 0.2 µM)	relative viability (IPA-3 + Luminespib; first compound 0.6325 µM)	relative viability (IPA-3 + Luminespib; first compound 2 µM)	relative viability (IPA-3 + Luminespib; first compound 6.325 µM)	relative viability (IPA-3 + Luminespib; first compound 20 µM)	relative viability (RAF265 + Vorinostat; first compound 0.01 µM)	relative viability (RAF265 + Vorinostat; first compound 0.03162 µM)	relative viability (RAF265 + Vorinostat; first compound 0.1 µM)	relative viability (RAF265 + Vorinostat; first compound 0.3162 µM)	relative viability (RAF265 + Vorinostat; first compound 1 µM)	relative viability (Doramapimod + Vorinostat; first compound 0.02 µM)	relative viability (Doramapimod + Vorinostat; first compound 0.06325 µM)	relative viability (Doramapimod + Vorinostat; first compound 0.2 µM)	relative viability (Doramapimod + Vorinostat; first compound 0.6325 µM)	relative viability (Doramapimod + Vorinostat; first compound 2 µM)	relative viability (RAF265 + Pictilisib; first compound 0.01 µM)	relative viability (RAF265 + Pictilisib; first compound 0.03162 µM)	relative viability (RAF265 + Pictilisib; first compound 0.1 µM)	relative viability (RAF265 + Pictilisib; first compound 0.3162 µM)	relative viability (RAF265 + Pictilisib; first compound 1 µM)
NCI-H838	0.238	0.218	0.306	0.276	0.378	0.735	0.716	0.72	0.691	0.632	0.749	0.749	0.766	0.808	0.726	0.53	0.444	0.397	0.362	0.342
NCI-H1355	0.889	0.677	0.719	0.702	0.757	0.641	0.607	0.578	0.604	0.419	0.621	0.577	0.64	0.704	0.566	0.498	0.409	0.322	0.214	0.204
NCI-H1395	0.726	0.671	0.6	0.601	0.699	0.791	0.65	0.807	0.554	0.587	0.722	0.943	0.975	0.67	0.571	0.632	0.574	0.568	0.449	0.507
NCI-H1437	1.15	0.951	1.1	1.03	1.24	0.823	0.778	0.947	0.887	0.715	0.789	0.912	0.836	0.855	0.688	0.613	0.428	0.455	0.475	0.274
NCI-H1650	0.193	0.179	0.218	0.208	0.191	0.615	0.587	0.595	0.655	0.566	0.571	0.586	0.553	0.729	0.528	0.642	0.528	0.755	0.348	0.583
NCI-H1651	1.04	0.768	0.853	0.959	1.02	0.61	0.637	0.521	0.591	0.453	0.514	0.604	0.602	0.623	0.552	0.523	0.539	0.433	0.397	0.463
NCI-H1666	1.06	0.972	1.04	1.16	1.34	1.13	0.923	0.906	0.99	0.854	1.05	0.986	1.03	1.14	0.944	0.583	0.453	0.329	0.426	0.249
NCI-H1734	0.191	0.224	0.185	0.216	0.194	0.801	0.715	0.731	0.536	0.322	0.705	0.739	0.665	0.94	0.621	0.479	0.334	0.438	0.276	0.228
